# Patent US6818644B1, “Substituted piperazine derivatives, the preparation thereof and their use as medicaments” (Boehringer Ingelheim Pharm GmbH & Co, KG, priority 1999, dated 2004)
row,Compound,melting point [°C]
1,"O=C(NCC(F)(F)F)C1(CCCCN2CCN(c3ccc(F)cc3)CC2)c2ccccc2-c2ccccc21 [Example 9, 9-{4-[4-(4-Fluorophenyl)-piperazin-1-yl]-butyl}-9H-fluorene-9-carboxylic acid-(2,2,2-trifluoroethyl)-amide]",116 to 117
2,"COc1cccc(N2CC(C)N(CCCCC3(C(=O)NCC(F)(F)F)c4ccccc4-c4ccccc43)C(C)C2)n1 (centres unmarked) [Example 36, 9-{4-[4-(6-methoxy-pyridin-2-yl)-2,6-dimethyl-piperazin-1-yl]-butyl}-9H-fluorene-9-carboxylic acid-(2,2,2-trifluoroethyl)-amide]",122
3,"O=C(NCC(F)(F)F)C1(CCCCN2CCN(c3ccc(OCc4ccccc4)cc3)CC2)c2ccccc2-c2ccccc21 [Example 6, 9-{4-[4-(4-Benzyloxy-phenyl)-piperazin-1-yl]-butyl}-9H-fluorene-9-carboxylic acid-(2,2,2-trifluoroethyl)-amide]",180
4,"O=C(NCC(F)(F)F)C1(CCCCN2CCN(c3ccccn3)CC2)c2ccccc2-c2ccccc21 [Example 20, 9-{4-[4-Pyridin-2-yl-piperazin-1-yl]-butyl}-9H-fluorene-9-carboxylic acid-(2,2,2-trifluoroethyl)-amide]",123
5,"O=C(NCC(F)(F)F)C1(CCCCN2CCN(c3ccc(Cl)c(Cl)c3)CC2)c2ccccc2-c2ccccc21 [Example 12, 9-{4-[4-(3,4-dichlorophenyl)-piperazin-1-yl]-butyl}-9H-fluorene-9-carboxylic acid-(2,2,2-trifluoroethyl)-amide]",122
6,"O=C(NCC(F)(F)F)C1(CCCCN2CCN(c3ccc([N+](=O)[O-])cc3)CC2)c2ccccc2-c2ccccc21 [Example 17, 9-{4-[4-(4-nitro-phenyl)-piperazin-1-yl]-butyl}-9H-fluorene-9-carboxylic acid-(2,2,2-trifluoroethyl)-amide]",146
7,"COc1cccc(N2CCN(CCCCC3(C(=O)NCC(F)(F)F)c4ccccc4Oc4ccccc43)CC2)n1 [Example 35, 9-{4-[4-(6-methoxy-pyridin-2-yl)-piperazin-1-yl]-butyl}-9H-xanthene-9-carboxylic acid-(2,2,2-trifluoroethyl)-amide]",122
8,"O=C(NCC(F)(F)F)C1(CCCCN2CCN(c3cccc(-c4ccccc4)n3)CC2)c2ccccc2-c2ccccc21 [Example 28, 9-{4-[4-(6-phenyl-pyridin-2-yl)-piperazin-1-yl]-butyl}-9H-fluorene-9-carboxylic acid-(2,2,2-trifluoroethyl)-amide]",63
9,"O=C(NCC(F)(F)F)C1(CCCCN2CCN(c3ccc(Cl)c(C(F)(F)F)c3)CC2)c2ccccc2-c2ccccc21 [Example 10, 9-{4-[4-(4-Chloro-3-trifluoromethyl-phenyl)-piperazin-1-yl]-butyl}-9H-fluorene-9-carboxylic acid-(2,2,2-trifluoroethyl)-amide]",96
10,"COc1ccc(N2CCN(CCCCC3(C(=O)NCC(F)(F)F)c4ccccc4-c4ccccc43)CC2)cc1 [Example 13, 9-{4-[4-(4-methoxy-phenyl)-piperazin-1-yl]-butyl}-9H-fluorene-9-carboxylic acid-(2,2,2-trifluoroethyl)-amide]",120
11,"Cc1cccc(N2CCN(CCCCC3(C(=O)NCC(F)(F)F)c4ccccc4-c4ccccc43)CC2)n1 [Example 25, 9-{4-[4-(6-methyl-pyridin-2-yl)-piperazin-1-yl]-butyl}-9H-fluorene-9-carboxylic acid-(2,2,2-trifluoroethyl)-amide]",85 to 87
12,Cl.Nc1ccc(N2CCN(CCCCC3(C(=O)NCC(F)(F)F)c4ccccc4-c4ccccc43)CC2)cc1,> 270
13,"COc1cccc(N2CC(C)N(CCCCC3(C(=O)NCc4ccc(F)cc4)c4ccccc4-c4ccccc43)C(C)C2)n1 (centres unmarked) [Example 37, 9-{4-[4-(6-methoxy-pyridin-2-yl)-2,6-dimethyl-piperazin-1-yl]-butyl}-9H-fluorene-9-carboxylic acid-4-fluorobenzyl-amide]",78 to 79
14,"O=C(NCC(F)(F)F)C1(CCCCN2CCN(c3cccc(Cl)c3)CC2)c2ccccc2-c2ccccc21 [Example 5, 9-{4-[4-(3-Chloro-phenyl)-piperazin-1-yl]-butyl}-9H-fluorene-9-carboxylic acid-(2,2,2-trifluoroethyl)-amide]",122
15,"O=C(NCC(F)(F)F)C1(CCCCN2CCN(c3ccc(Cl)cc3)CC2)c2ccccc2-c2ccccc21 [Example 4, 9-{4-[4-(4-Chloro-phenyl)-piperazin-1-yl]-butyl}-9H-fluorene-9-carboxylic acid-(2,2,2-trifluoroethyl)-amide]",166
16,"Cc1cccc(N2CCN(CCCCC3(C(=O)NCc4ccc(F)cc4)c4ccccc4-c4ccccc43)CC2)n1 [Example 26, 9-{4-[4-(6-methyl-pyridin-2-yl)-piperazin-1-yl]-butyl}-9H-fluorene-9-carboxylic acid-4-fluorobenzyl-amide]",96 to 97
17,"O=C(NCC(F)(F)F)C1(CCCCN2CCN(c3ccc(C(F)(F)F)cc3)CC2)c2ccccc2-c2ccccc21 [Example 7, 9-{4-[4-(4-Trifluoromethyl-phenyl)-piperazin-1-yl]-butyl}-9H-fluorene-9-carboxylic acid-(2,2,2-trifluoroethyl)-amide]",176
18,"O=C(NCC(F)(F)F)C1(CCCCN2CCN(c3ccc(C(F)(F)F)cn3)CC2)c2ccccc2-c2ccccc21 [Example 27, 9-{4-[4-(5-trifluoromethyl-pyridin-2-yl)-piperazin-1-yl]-butyl}-9H-fluorene-9-carboxylic acid-(2,2,2-trifluoroethyl)-amide]",147 to 149
19,"O=C(NCC(F)(F)F)C1(CCCCN2CCN(c3ccc(-c4ccccc4)cc3)CC2)c2ccccc2-c2ccccc21 [Example 3, 9-[4-(4-biphenyl-4-yl-piperazin-1-yl)-butyl]-9H-fluorene-9-carboxylic acid-(2,2,2-trifluoroethyl)-amide]",209 to 211
20,"O=C(NCC(F)(F)F)C1(CCCCN2CCN(c3cc(-c4ccccc4)ccn3)CC2)c2ccccc2-c2ccccc21 [Example 29, 9-{4-[4-(4-phenyl-pyridin-2-yl)-piperazin-1-yl]-butyl}-9H-fluorene-9-carboxylic acid-(2,2,2-trifluoroethyl)-amide]",59
